Results from PMC12731536, “Sc(III) Complexes of Pyclen Derivative Ligands as Probes for Hypoxia: Synthesis, Chemical Characterization, ^44Sc‐Radiolabeling, and Preclinical Assessment” (Chemistry (Weinheim an Der Bergstrasse, Germany), 2025).
Read-outs that look alike come from different tables or passages of the source.

Legend:
[1] = I = 0.15 M NaCl, T = 25 °C; cited from earlier work
[2] = cited from earlier work
[3] = Stability constants of Sc(III) complexes, out‐of‐cell (batch) samples, 45Sc NMR; type: physicochemical; settings: for AL/M (relative affinity): [Sc(III)]total = 10 nM, [L]tot = 100 nM
Description: The stability constant of the complex of PC2AM^nBu ligand formed with Sc(III) ion was studied using “out‐of‐cell” (batch) samples using ^45Sc NMR spectroscopy in strongly acidic media. Typical ^45Sc NMR spectra are shown in Figure 5 along with the corresponding ^1H NMR spectra of the aromatic region of the ligand.
Using the ^45Sc NMR signal intensities of free Sc^3+ measured in the equilibrated samples, the stability constant, K ScL, was calculated by fitting the areas with the PSEQUAD program ^[ [47] ^] (Figure 6). The best fitting was observed by considering the simplest model including only [Sc(PC2AM^nBu)]^+ species; that is, the formation of protonated [Sc(HPC2AM^nBu)]^2+ cannot be confirmed.
The stability constant of the [Sc(PCTA)] complex was determined in a similar way (Figure S13). The results were summarized in Table 2, including the data of [Sc(DO3AM‐NI)], determined in our previous study.^[ [33] ^]
Among the complexes shown in Table 2, the [Sc(DO3AM‐NI)] complex has the highest stability, but its stability constant is lower than the corresponding values of [Sc(DOTA)]^− (log K ScL = 30.79) and [Sc(DTPA)]^2− (log K ScL = 27.43). ^[ [49] ^] As evidenced for DO3AM‐mono(amide) the replacement of acetate side chains with amide groups results in a decrease in stability constant (and conditional stability); therefore, we can see an order of magnitude difference between the stabilities of [Sc(PCTA)] and [Sc(PC2AM^nBu)]^+. Although these K ScL constants and pSc values are somewhat lower than those of the complexes formed with traditional DOTA and DTPA ligands, these chelators remain remarkably good Sc(III)‐binding chelators. […] Therefore, following the proposal of M. Meyer and colleagues,^[ [48] ^] […] For the AL/M values, 1 corresponds to 90%, 2 corresponds to 99%, 3 corresponds to 99.9% etc. for complex formation. […] The AL/M data of the [Sc(PC2AM^nBu)]^+ complex only exceeds that of the [Sc(DO3AM‐NI)] complex in the pH < 3.0 range, which can be advantageous for labeling at low pH. Furthermore, based on the data in Table 2, it can be concluded that for these systems there is no discrepancy between the trends observed in the pSc and AL/M values.
The stability constant of [Sc(PC2AM^nBu)]^+ and [Sc(PCTA)] complexes was studied using “out‐of‐cell” (batch) samples using ^45Sc and ^1H NMR spectroscopy. The NMR spectra were obtained using a Bruker Avance II DRX spectrometer (9.4 T), equipped with Bruker Variable Temperature Unit, Bruker Cooling Unit, and a 5 mm BB inverse z gradient probe. For the investigation of [Sc(PC2AMnBu)]⁺, twelve samples (cSc(III) = 3.00 mM, cligand = 3.06 mM, in the pH range of –log[H^+] = 0.1–1.3; I = 1.0 M NaCl/HCl) were prepared in NMR tubes and kept at 25 °C for one week to reach equilibrium. During this period, ^1H and ^45Sc NMR measurements were performed daily to monitor changes in signal intensities. No significant changes were detected after one week, even in the most acidic sample. The intensities of the free Sc(III) signals were normalized using a standard 50 mM ScCl3 solution containing 1 M HCl (20% D2O). For the determination of the stability of the [Sc(PCTA)] complex, eleven “batch” samples (cSc(III) = 4.00 mM, cligand = 4.08 mM), in the pH range of –log[H^+] = 0.1–1.25, were prepared. The evaluation of the measured data was performed using the PSEQUAD program.^[ [47] ^] Samples were prepared in H2O, with 10% D2O added for deuterium lock. The actual resonance frequencies for ^1H, ^13C, ^19F, and ^45Sc are indicated in the text and figure captions. The chemical shifts of ^1H and ^13C were calibrated using an external TMS standard, while ^19F was referenced to CCl3F. The ^45Sc NMR shift was calibrated to 0 ppm using a 5 mM solution of ScCl3 in 0.1 M HCl.

[4] = Acid‐assisted dissociation (decomplexation) of Sc(III) complexes, UV spectroscopy; type: physicochemical; settings: dissociation of the Sc(III) complex, 1.6‐2.6 M HClO4, 25 °C, I = 2.6 M
From the text: The inertness of metal complexes is a basic requirement in all relevant modalities of medical imaging. Complexes of macrocyclic ligands are often more inert compared to open‐chain analogs. In order to assess the behavior of our complexes, the decomplexation of [Sc(PC2AM^nBu)]^+ and [Sc(PCTA)] was studied in a strongly acidic medium (cH + = 1.6 ‐ 2.6 M HClO4) by using UV spectroscopy. […] The primary Abs. versus time curves have been fitted by monoexponential function returning kobs (s^−1) values (Figures S22 and S23).
The plots of the rate constants as a function of acid concentration yielded linear relationships for both complexes (k obs = k 0 + k 1[H^+]). The slopes of these lines correspond to the rate coefficients characteristic for acid‐assisted dissociation (k 1), whereas the intercepts characterize the acid‐independent part, often referred to as a rate of spontaneous dissociation. […] The rate coefficients obtained during the fitting are summarized in Table 3, along with the half‐lives calculated from the rate coefficients by using 1 M acid concentration (t ½ = ln 2 / k obs).
Kinetic studies of the dissociation of the [Sc(PC2AMnBu)]^+ and [Sc(PCTA)] complexes were carried out by examining the dependence of the dissociation rates on acid concentration. Spectrophotometric measurements were conducted on a JASCO V‐760 spectrophotometer at λ = 280 nm. The concentration of the complex in the sample was 0.30 mM, and HClO4 was applied in concentrations ranging from 1.6 to 2.6 M. The evaluation of the measured data was performed with Scientist software ^[ [62] ^] to determine the k 0 (spontaneous) and k 1 (acid‐assisted) reaction rates.

[5] = pH‐potentiometric determination of ligand protonation constants; type: physicochemical; settings: T = 25 °C
Description: The equilibrium study of the PC2AM^nBu ligand has been started by determining the protonation constants in 0.15 M and 1.00 M NaCl ionic strength. (As the stability of the Sc(III) complex was determined in 1.00 M ionic strength, we had to perform the pH‐potentiometric titration of ligands using 1.00 M ionic strengths also.) The results of pH‐potentiometric measurement are shown in Table 1, where the corresponding data for 3,9‐PC2A,^[ [42] ^] PCTA ^[ [46] ^] and PC2AM‐NI ligands determined under identical conditions are also presented. Knowledge of the protonation constants defined by Eqn. 1 and 2 are essential for the calculation of the stability constants of the Sc(III) complexes:
(1) PC2AM^nBu^2−+nH^+⇌Hn(PC2AM^nBu)^−2+n (2) βn=HnPC2AM^nBu^−2+n/PC2AM^nBu^2−H^+^n
The protonation constants of the ligands, as well as the concentrations of the ligand stock solutions, were determined by pH‐potentiometric method using a Metrohm 785 DMP Titrino automatic titrator using a Metrohm 6.00234.100 combined glass electrode. The titrations were carried out in the pH range 1.75–11.80 and the pH electrode was calibrated by a two‐point calibration routine with the use of 0.05 M KH‐phthalate (pH = 4.005) and 0.01 M borax (pH = 9.177 buffers. The samples were stirred at 25 °C (±0.1 °C) and N2 gas bubbled into the system to ensure inert conditions and to eliminate the effect of the presence of CO2. For the calculation of [H^+] from the measured pH values, the method proposed by Irving et al. was applied.^[ [61] ^] For this, a 0.01 M HCl solution was titrated with the standardized NaOH solution in the presence of 0.15 M NaCl ionic strength at 25 °C. The differences between the measured (pHread) and calculated pH (‐log[H^+]) values were used to obtain the equilibrium H^+ concentration from the pHmeas values during the titrations. By fitting the resulting titration curves (pH – V (NaOH) data pairs) with the PSEQUAD program, the protonation constants of the ligands were determined.^[ [47] ^] The titration of the [Sc(PC2AM^nBu)]^+ with NaOH was performed with the same method by applying very similar conditions.

[6] = Time course of Sc(III) complex formation, 45Sc NMR; type: physicochemical
Description: The time course of complex formation of PC2AM^nBu and PCTA ligands with Sc(III) ion was investigated by ^45Sc‐NMR under acidic conditions (cSc = cligand = 10 mM and 9.5 mM, respectively, ‐log[H^+] = 1.28). The decrease of the narrow signal of the free Sc(III) ion was monitored as a function of time. […] The kinetic measurements of formation could be seen in Figures S18 and S19. The complexation for the [Sc(PCTA)] chelate at pH = 1.28 and 25 °C took about 300 minutes to reach the equilibrium, whereas for the [Sc(PC2AM^nBu)]^+ complex it took a bit longer time under these conditions. (In order to confirm that the samples reached the equilibrium, we have repeated the ^45Sc NMR study for both samples after a few days when the signal of the free Sc(III) was absent, and only the signals of the complexes were detected.) The detailed study of formation kinetics was not our aim in this project. One can expect that the reaction follows the well‐known mechanisms of M(III) ‐ macrocyclic APC systems ^[ [54] ^]: formation of a protonated intermediate in fast pre‐equilibrium followed by a slow, base‐catalyzed deprotonation/structural rearrangement as a rate‐determining step. The intermediate is named also as “out‐of‐cage complex.”^[ [55] ^] Our experimental curves are likely in accordance with this mechanism. Fitting the measured data for the free Sc(III) signals by a monoexponential function gives the rate constant k obs = (1.04 ± 0 .05) x 10^−4 s^−1 for the [Sc(PC2AM^nBu)]^+ and k obs = (2.51 ± 0.12) x 10^−4 s^−1 for the [Sc(PCTA)] complex. […] The relatively fast complex formation at the given acidic condition is very encouraging for the Sc(III) labeling experiments.
^45Sc NMR measurements (97 MHz) were performed on a Bruker DRX 400 (9.4 T) spectrometer equipped with a Bruker VT‐1000 thermocontroller and a BB inverse z‐gradient probe (5 mm). The kinetic experiments were performed at 25 °C in aqueous solution, using D2O (10% v/v) as a lock solvent. Typical parameters for 45Sc NMR measurements were used: TD = 32k, p1 = 15.6 µs (90°), d 1 = 0.1 s. The formation reactions of the [Sc(PC2AM^nBu)]^+ and [Sc(PCTA)] complexes were monitored by ^45Sc NMR spectroscopy in two sample types: one containing 10.0 mM PC2AM^nBu and ScCl3 / 9.5 mM […] and ScCl3. In both cases, the total acid concentration corresponded to a pH of 1.28. Obtained monoexponential curves (signal area of free Sc(III) vs. time) were fitted using Scientist software ^[ [62] ^] to determine the formation rate.

SMILES: O=C(O)CN1CCN(CC(=O)O)CCN(CC(=O)NCCn2ccnc2[N+](=O)[O-])CCN(CC(=O)O)CC1 [DO3AM‐NI]
- log β 2 ^H [1]: 17.38
- pSc ([2]; pSc = ‐log[Sc(III)]free, cSc(III) = 1x10^−8 M, clig = 1x10^−7 M, pH = 7.4, I = 0.15 M NaCl): 20.74
- log K ScL ([2]; stability constant of the Sc(III) complex, I = 0.15 M NaCl, T = 25 °C): 22.36
- AL/M (relative affinity) ([3]; pH = 7.4, I = 0.15 M NaCl, calculated from constants of ref 33): 6.57

SMILES: CCCCNC(=O)CN1CCN(CC(=O)O)Cc2cccc(n2)CN(CC(=O)O)CC1 [PC2AM^nBu]
- k 0 (spontaneous dissociation) [4]: 0 s⁻¹
- k 1 (acid‐assisted dissociation) [4]: (3.64 ± 0.08) x 10^−7 M^−1s^−1
- log K 1 ^H ([5]; I = 0.15 M NaCl): 8.79(1)
- log K 2 ^H ([5]; I = 0.15 M NaCl): 7.59(1)
- log K 3 ^H ([5]; I = 0.15 M NaCl): 2.31(2)
- log K 4 ^H ([5]; I = 0.15 M NaCl): 1.28(3)
- log β 2 ^H ([5]; I = 0.15 M NaCl): 16.38
- log K 1 ^H ([5]; I = 1.00 M NaCl): 8.13(2)
- log K 2 ^H ([5]; I = 1.00 M NaCl): 7.59(1)
- log K 3 ^H ([5]; I = 1.00 M NaCl): 2.52(1)
- log β 2 ^H ([5]; I = 1.00 M NaCl): 15.72
- AL/M (relative affinity) ([3]; pH = 7.4, I = 1.00 M NaCl): 5.17
- pSc ([3]; pSc = ‐log[Sc(III)]free, cSc(III) = 1x10^−8 M, clig = 1x10^−7 M, pH = 7.4, I = 1.00 M NaCl): 19.32
- log K ScL ([3]; stability constant of the Sc(III) complex, I = 1.00 M NaCl, T = 25 °C): 19.53(4)

SMILES: O=C([O-])CN1CCN(CC(=O)[O-])CCN(CC(=O)[O-])CCN(CC(=O)[O-])CC1.[Sc+3] [[Sc(DOTA)]^−]
- log K ScL ([2]; literature stability constant): 30.79

SMILES: O=C([O-])CN(CCN(CC(=O)[O-])CC(=O)[O-])CCN(CC(=O)[O-])CC(=O)[O-].[Sc+3] [[Sc(DTPA)]^2−]
- log K ScL ([2]; literature stability constant): 27.43

SMILES: O=C([O-])CN1CCN(CC(=O)[O-])Cc2cccc(n2)CN(CC(=O)[O-])CC1.[Sc+3] [[Sc(PCTA)]]
- time of complexation to reach the equilibrium ([6]; pH = 1.28, 25 °C): about 300 minutes
- half‐life of the complex formation reaction (t 1/2 = ln2 / k obs) ([6]; ‐log[H^+] = 1.28, 25 °C): 46 min
- k obs of complex formation ([6]; ‐log[H^+] = 1.28, 25 °C, cSc = cligand = 10 mM (PC2AM^nBu) or 9.5 mM (PCTA), monoexponential fit of free Sc(III) signal): (2.51 ± 0.12) x 10^−4 s^−1
